In patent US11872199B2, “Topical formulations of cyclooxygenase inhibitors and their use” (SMARTECH TOPICAL, INC., priority 2019, dated 2024):

Legend:
[1] = printed as negative log P; cited from earlier work
[2] = Franz diffusion cell skin permeation testing of diclofenac formulations; type: in vitro ADME, human; settings: Example 7, as permeation enhancer in 2% diclofenac formulation
Method: Franz diffusion cell experiments were used to analyze flux rates of diclofenac from compositions taught under the present disclosure across human skin. See, e.g., Bartosova and Bajgar, Transdermal Drug Delivery In Vitro Using Diffusion Cells, Curr. Med. Chem. 2012, 19: 4671-4677.
In the examples described herein, Franz diffusion cells (“FDC”s) with a 3.3 mL receptor well volume were used, with either porcine skin or human cadaver skin. For human cadaver skin, split thickness human cadaver skin (0.015″-0.018″) was obtained from AlloSource (Centennial, Colo.) or Skin Bank New York Firefighters (New York, N.Y.). The skin tissue was dermatomed by the tissue bank to a thickness of some 250 μm and shipped frozen on dry ice. […]
The integrity and quality of each skin piece was tested prior to application of the test formulations through measurement of the transdermal flux of tritiated water or of the transepidermal electrical resistance (“TEER”) (skin integrity was usually not tested on porcine skin pieces). […] An alternating current (“AC”) signal, 100 mV root mean square (“RMS”) at 100 Hz, was applied across the skin using a waveform generator and the impedance is then measured with a digital multimeter and the results recorded in kΩ. Any FDC showing anomalously low impedance (nominally <2 kΩ) was discarded and the FDCs were ranked according to the magnitudes of the measured impedance readings. […]

| Structure (SMILES) | log P [1] | effect on penetration of diclofenac [2] |
| --- | --- | --- |
| CCOCCOCCO [Transcutol, 2-(2-Ethoxyethoxy)ethanol] | ~-0.5 | – |
| CCCCCCCC/C=C\CCCCCCCC(=O)O [Oleic Acid, cis-9-octadecenoic acid] | – | enhance penetration of diclofenac |
| CCCCCCCC/C=C\CCCCCCCCO [Oleyl Alcohol, oleyl alcohol] | – | enhance penetration of diclofenac |
